Assay results published in patent US7691420B2, “Compositions for the treatment and prevention of diabetes mellitus” (priority 2003, dated 2010).
“Also recorded” adds a separate entry of the source. Marks after values point to notes of the source that are not given here.

Key:
[1] = test system: C57BLKS/J db/db mice; experiment: Fed state plasma glucose, triglycerides and free fatty acids in db/db mice at end of study; assay type: in vivo; conditions: 4 weeks
Method: (§1) This model of late type 2 diabetes with severe hyperglycemia and obesity is widely used to determine the efficacy of anti-diabetic and anti-obesity compounds.
(§2) Male db/db mice were obtained from Jackson Laboratory (Bar Harbor, Me., USA). Adult mice aged 8 weeks were used in the experiment. Mice were housed individually in plastic cages with bedding and allowed free access to standard rodent food and tap water. The animal rooms were controlled for temperature (24° C.), humidity (55%), and light (12-h light-dark cycle). The animals were randomized into four groups. […] Body weight and food intake were determined over the course of the study. Total adipose tissue weight was determined by NMR. After four weeks of treatment an oral glucose tolerance test was carried out after an overnight fasting period. The blood glucose levels were measured before (fasted state glucose levels) application of an oral glucose load (1 g/kg body weight) and after 15, 30, 45, 60, 90, 120, 150 and 180 minutes. Area under the curve (AUC) was calculated from the resulting blood glucose curves and served as an indicator of glucose tolerance. At the end of the study, fed state levels of glucose, triglycerides and free fatty acids were determined in plasma. All data are expressed as means for animals in each group.

[2] = test system: C57BLKS/J db/db mice; experiment: Body weight, adipose tissue weight and food intake in the 4-week db/db mouse study; assay type: in vivo; conditions: for Total adipose tissue weight / Body weight: 4 weeks feed-ad-mix, 1% EGCG and/or 0.038% rosiglitazone in diet, group means; for Total adipose tissue weight: by NMR; for Body weight: * vs control, # vs rosiglitazone (P<0.05)
Method: as §1, §2

[3] = test system: C57BLKS/J db/db mice; experiment: Oral glucose tolerance test and fasted state glucose in db/db mice after 4 weeks; assay type: in vivo; conditions: for Fasted state glucose: blood, overnight fasting, before glucose load
Method: as §1, §2

[4] = test system: C3H10T1/2; experiment: Adipocyte differentiation of C3H10T1/2 cells, oil red O staining; assay type: cell-based; conditions: for Optical Density: extracted oil red O stain after 11-day treatment, insulin 100 nM
Text: After the 11-day treatment, the cells were stained with oil red O. This was followed by extraction of the stain for concentration determination.

[5] = fed state plasma, 1% EGCG and/or 0.038% rosiglitazone in diet
[6] = 1% EGCG and/or 0.038% rosiglitazone in diet

Molecule | Free fatty acids [1, 5] | Glucose [1, 5] | Triglycerides [1, 5] | Total adipose tissue weight [2] | Body weight [2] | Fasted state glucose [3, 6] | Fed state plasma levels of glucose, triglycerides, and free fatty acids (result in words) [1] | Adipocyte differentiation (result in words) ([4]; C3H10T1/2 cells, 11-day treatment, oil Red O staining) | Body weight and adipose tissue weight (result in words) ([2]; 4 weeks, compared to control mice) | AUC ([3]; 1% EGCG and/or 0.038% rosiglitazone in diet, oral glucose load 1 g/kg, blood glucose curve 0-180 minutes) | Glucose tolerance (result in words) ([3]; AUC of oral glucose tolerance test) | Fasted state glucose levels (result in words) ([3]; compared to control mice) | Optical Density ([4]; Table 1, rosiglitazone 1 × 10^−5 M, pioglitazone 2.5 × 10^−5 M, EGCG 5 × 10^−5 M) | Optical Density ([4]; Table 2, ligustilide 50 × 10^−5 M, no EGCG)
CN(CCOc1ccc(CC2SC(=O)NC2=O)cc1)c1ccccn1 (stereo not shown) [Rosiglitazone, rosiglitazone, reference compound] | 25.2* mmol/l | 22.1* mmol/l | 1.01* mmol/l | 29.0* g | 50.0* g | 98.0* mg/dl | – | – | – | – | – | – | – | –
(−)-epigallocatechin gallate [EGCG] | – | 33.5*# mmol/l | 1.47* mmol/l | 20.9*# g | 38.8*# g | 132.1* mg/dl | significantly reduced | blocked TZD-induced adipocyte differentiation; also recorded: blocked ligustilide-induced adipocyte differentiation | moderately decreased | 38353.5* | significantly improved | significantly reduced | – | –
Insulin: insulin, 100 nM, used alone as comparison in the adipocyte differentiation test [reference compound] | – | – | – | – | – | – | – | – | – | – | – | – | 0.21 ± 0.02 | 0.14 ± 0.01
